This is an account of results in article PMC2765782 (Journal of medicinal chemistry, 2009).

For experiment [1], the target named is T1, human RXRα (Homo sapiens, UniProt P19793).
T1 sequence (P19793 1-462): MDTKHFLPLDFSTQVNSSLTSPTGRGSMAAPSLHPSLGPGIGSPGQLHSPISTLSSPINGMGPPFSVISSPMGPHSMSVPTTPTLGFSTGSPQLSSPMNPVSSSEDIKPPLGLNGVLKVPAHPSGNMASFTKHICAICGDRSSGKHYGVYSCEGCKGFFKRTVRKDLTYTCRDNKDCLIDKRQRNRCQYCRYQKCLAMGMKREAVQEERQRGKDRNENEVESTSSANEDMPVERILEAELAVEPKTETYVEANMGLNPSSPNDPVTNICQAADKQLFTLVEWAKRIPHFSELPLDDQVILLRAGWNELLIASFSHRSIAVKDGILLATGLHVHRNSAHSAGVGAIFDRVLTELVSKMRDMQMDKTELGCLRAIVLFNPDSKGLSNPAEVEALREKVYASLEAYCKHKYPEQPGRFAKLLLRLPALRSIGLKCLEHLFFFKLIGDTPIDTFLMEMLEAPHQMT
Conditions: 10^−7 M, 24 h, Caco-2 cells, versus ethanol control (Figure 4).

The target in a further experiment is T2, human RARα (Homo sapiens, UniProt P10276).
T2 sequence (P10276 1-462): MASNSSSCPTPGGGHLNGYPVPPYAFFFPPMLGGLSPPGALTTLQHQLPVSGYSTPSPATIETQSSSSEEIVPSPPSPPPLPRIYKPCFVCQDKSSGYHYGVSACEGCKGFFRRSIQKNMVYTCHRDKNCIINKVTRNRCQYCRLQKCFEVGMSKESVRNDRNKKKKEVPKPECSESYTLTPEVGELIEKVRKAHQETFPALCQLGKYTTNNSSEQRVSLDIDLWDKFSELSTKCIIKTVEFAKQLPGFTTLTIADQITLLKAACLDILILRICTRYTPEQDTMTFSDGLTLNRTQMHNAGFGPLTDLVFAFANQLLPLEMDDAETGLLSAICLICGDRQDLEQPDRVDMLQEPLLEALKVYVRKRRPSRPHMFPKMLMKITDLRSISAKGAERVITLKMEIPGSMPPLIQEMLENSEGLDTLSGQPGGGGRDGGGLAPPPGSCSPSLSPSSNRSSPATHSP
T2 sequence (P19793 1-462 partner): T1 sequence (P19793 1-462)
Conditions: RARE-luciferase reporter, Caco-2 cells. In general terms: Reporter assays use an easily measured gene product as a stand-in for the process of interest.

Experiment [2] deals with T3, RXR (Homo sapiens, UniProt P19793).
T3 sequence (P19793 227-462 limits assumed): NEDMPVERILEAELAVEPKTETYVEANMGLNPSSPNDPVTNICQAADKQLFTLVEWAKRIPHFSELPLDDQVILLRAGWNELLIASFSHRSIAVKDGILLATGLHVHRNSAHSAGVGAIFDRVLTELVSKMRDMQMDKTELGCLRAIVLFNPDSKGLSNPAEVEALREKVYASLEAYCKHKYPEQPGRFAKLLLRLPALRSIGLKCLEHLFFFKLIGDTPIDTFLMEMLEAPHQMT
The experiment can be described thus: cell-based.

The target of experiment [3] is T1, human RXRα. The experiment can be described thus: biochemical.
Experiment [4] addresses T3, RXR. Conditions: for RXR binding and homodimerization relative to 1 (luciferase output): 10^−7 M, 24 h, Caco-2 cells, compound 1 set to 1.0 (Figure 3).
Experiment [5] has as its system Human T-cell lymphoma (CTCL) cells (Hut78). The conditions noted are these: 24 h, versus ethanol vehicle control (Figure 5).
In experiment [6] the target is T1, human RXRα. The conditions noted are these: based on Ki values of Table 1.

On to “5-(1-(1,2,3,4-Tetrahydro-1,1,4,4,6-pentamethylnaphthalen-7-yl)vinyl)benzene-1,3-dioic Acid [Compound 14]”, for which, at human RXRα [1], the “RXR-mediated transcriptional activity (RXRE-luciferase)” value (from here on “RXR-mediated transcriptional activity”) is “did not display significant RXR binding and activation”.

As for `C=C(c1ccc(C(=O)O)c([N+](=O)[O-])c1)c1cc2c(cc1C)C(C)(C)CCC2(C)C` [Compound 16, 4-(1-(1,2,3,4-Tetrahydro-1,1,4,4,6-pentamethylnaphthalen-7-yl)vinyl)-2-nitrobenzoic Acid], the “RXR-mediated transcriptional activity” value on human RXRα [1] is given as “transcriptional activity significantly above the ethanol control levels”. Moreover, the “RAR agonist activity compared with 1” value at human RARα is recorded as “slightly greater RAR agonist activity”. At RXR [2], the response was half-maximal at 0.2 µM (EC50). The Ki on human RXRα [3] is 0.081 µM.

As to `C=C(c1cc2c(cc1C)C(C)(C)CCC2(C)C)c1ccc(C(=O)O)cc1F` [Compound 18, 3-Fluoro-4-(1-(1,2,3,4-tetrahydro-1,1,4,4,6-pentamethylnaphthalen-7-yl)vinyl)benzoic acid], at RXR [4], the “RXR binding and homodimerization relative to 1 (luciferase output)” value was “about half as well as 1”. Further, at human RXRα [1], the “RXR-mediated transcriptional activity” value is listed as “transcriptional activity significantly above the ethanol control levels”. Besides, the “RAR agonist activity compared with 1” value on human RARα is given as “significantly lower RAR binding”. This compound also registered an EC50 at RXR [2] of 0.42 µM. This compound displayed a Ki at human RXRα [3] of 0.161 µM.

On to `Cc1cc2c(cc1C(=O)c1ccc(C(=O)O)cc1F)C(C)(C)CCC2(C)C` [Compound 19, 3-Fluoro-4-(1-(3,5,5,8,8-pentamethyl-5,6,7,8-tetrahydronaphthalen-2-yl)carbonyl)benzoic acid], for which, at RXR [4], the “RXR binding and homodimerization relative to 1 (luciferase output)” value is “does not bind to RXR”. Also, in experiment [5], the “apoptotic activity (caspases 3 and 7)” value is reported as “almost no apoptotic activity”.

On to `C=C(c1ccc(C(=O)O)c(F)c1)c1cc2c(cc1C)C(C)(C)CCC2(C)C` [Compound 20, 2-fluoro-4-(1-(1,2,3,4-tetrahydro-1,1,4,4,6-pentamethylnaphthalen-7-yl)vinyl)benzoic acid], for which the “apparent RXR binding affinity greater than 1” value at human RXRα [6] was found to be 75%. In addition, at RXR [4] (versus 1, Table 1), the “increase in efficacy based on EC50 values” was determined as 20%. Besides, on human RXRα [1], the “RXR-mediated transcriptional activity” value was “transcriptional activity significantly above the ethanol control levels”. At human RARα, the “RAR agonist activity compared with 1” value is reported as “approximately equal to 1”. It took 0.043 µM to reach a half-maximal effect on RXR [2] (EC50). At human RXRα [3], this compound displayed a Ki of 0.012 µM.

In the case of `Cc1cc2c(cc1C(=O)c1ccc(C(=O)O)c(F)c1)C(C)(C)CCC2(C)C` [Compound 21, 2-fluoro-4-(1-(3,5,5,8,8-pentamethyl-5,6,7,8-tetrahydronaphthalen-2-yl)carbonyl)benzoic acid], the “RXR binding and homodimerization relative to 1 (luciferase output)” value on RXR [4] was “a small degree of RXR binding and homodimerization relative to 1”.

As a reminder, the EC50 is the concentration at which the effect is half-maximal. A higher EC50 goes with a less potent agent. What is called Ki is the equilibrium dissociation constant of an inhibitor or competing ligand from its target. Read a high Ki as weaker binding.
